Consider two compounds from patent US20250304550A1, “BROMODOMAIN AND EXTRA-TERMINAL (BET) SUBFAMILY BROMODOMAIN 1 (BD1) SELECTIVE INHIBITORS AND METHODS USING SAME” (Baylor College of Medicine, priority 2022, published 2025).

In one data set the test system is AML cell line MV4; 11. Put plainly: Cell viability testing (CellTiterGlo, 72 hours). The format is cell-based. Conditions: Homo sapiens, '—' = not efficient. Background: In ATP-based viability assays light output follows the ATP content of the culture.
A further data set has as its target BRDT-BD2 (Homo sapiens (Human), UniProt Q58F21). Put plainly: AlphaScreen bromodomain proximity assay (biotinylated JQ1 competition). Conditions: in Table 4 '—' = not efficient. The format is binding. In general terms: Bead proximity is the source of the signal in Alpha formats.
Another data set concerns the target BRD4-BD2 (Homo sapiens (Human), UniProt O60885). The data set is described as above. The note with it: in Table 4 '—' = not efficient. The data set is classed as binding.
The target of data set [1] is T1, BRD4-BD1 (Homo sapiens (Human), UniProt O60885). Described as above. The format is binding.
In data set [2] the target is T2, BRDT-BD1 (Homo sapiens (Human), UniProt Q58F21). The description is as above. The data set is classed as binding. Conditions: for BRDT-BD1 vs. BRDT-BD2 fold: BD1 selectivity, AlphaScreen IC50 ratio.
Data set [3] can be described thus: Metabolic stability assay in human liver microsomes. The format is in vitro ADME. The note with it: human, microsomes.
The next data set concerns NanoLuc-BET BD1. Put plainly: NanoBRET target engagement intracellular BET bromodomain assay in HEK293 cells. The format is cell-based, human. Conditions: transiently transfected HEK293 cells. (In general: BRET reads energy transfer from a luciferase to a nearby fluorophore.)
Data set [4] has as its system MV4; 11 and MOLM-13 cells. Put plainly: Cell cycle analysis by flow cytometry. The data set is classed as cell-based. Conditions: 24 hours of treatment at the IC50.
Data set [5] relates to MYC and GAPDH expression in MV4; 11 and MOLM-13 cells. In words: Quantitative RT-PCR analysis of MYC and GAPDH expression. The format is cell-based. The note with it: 8 hours of treatment, both cell lines.
The next data set addresses BRD3-BD1 (Homo sapiens (Human), UniProt Q15059). In words: BromoKdELECT assay. The format is binding.
The target in data set [6] is T2, BRDT-BD1. In words: BromoKdELECT assay. The format is binding.
Data set [7] has as its target T1, BRD4-BD1. In words: BromoKdELECT assay. The data set is classed as binding.
The next data set addresses NanoLuc-BRDT-BD2 (Homo sapiens (Human), UniProt Q58F21). In words: NanoBRET target engagement intracellular BET bromodomain assay in HEK293 cells. The format is cell-based. Conditions: transiently transfected HEK293 cells.
A further data set deals with NanoLuc-BRD4-BD2 (Homo sapiens (Human), UniProt O60885). Described as above. The format is cell-based. The note with it: transiently transfected HEK293 cells.
For data set [8], the system named is MV4; 11 and MOLM-13 cells. In words: Apoptosis detection (Annexin V) by flow cytometry. The format is cell-based. The note with it: 72 hours of treatment.
The nature of data set [9]: Metabolic stability assay in mouse liver microsomes. The format is in vitro ADME. Conditions: mouse, microsomes.
In another data set the target is BRD2-BD1 (Homo sapiens (Human), UniProt P25440). In words: BromoKdELECT assay. The data set is classed as binding.
Sequence of BRD2-BD1 (P25440 74-180): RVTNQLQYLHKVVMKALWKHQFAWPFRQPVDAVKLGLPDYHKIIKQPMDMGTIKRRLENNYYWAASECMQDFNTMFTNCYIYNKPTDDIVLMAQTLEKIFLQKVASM

Usually EC50 stands for the midpoint of the concentration-response curve. The low end stands for a more potent agent, the high end for a less potent agent. For orientation: IC50 means the midpoint of a concentration-inhibition curve. A low value points to greater potency. One may read the half-life as the time in which the quantity being followed falls by half. A higher half-life goes with slow loss.

Sequence of BRD3-BD1 (Q15059 34-140): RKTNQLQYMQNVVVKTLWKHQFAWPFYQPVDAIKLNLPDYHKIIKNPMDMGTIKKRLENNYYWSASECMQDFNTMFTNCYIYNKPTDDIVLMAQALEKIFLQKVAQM

Compound `CNC(=O)[C@@H](CC1CCN(C(=O)Cc2ccc3[nH]c(=O)ccc3c2)CC1)NC(=O)c1ccc(-c2ccccc2)cn1` [Compound 10, (R)-N-(1-(methylamino)-1-oxo-3-(1-(2-(2-oxo-1,2-dihydroquinolin-6-yl)acetyl)piperidin-4-yl)propan-2-yl)-5-phenylpicolinamide] had an EC50 in the data set with AML cell line MV4; 11 of 143 nM. Moreover, the IC50 is 20900 nM on BRDT-BD2, 16700 nM at BRD4-BD2, 7.1 nM on BRD4-BD1 [1] (AlphaScreen) and 5.4 nM on BRDT-BD1 [2] (AlphaScreen). Further, the “fold loss of selectivity over BRD4-BD2” value on BRD4-BD1 [1] (AlphaScreen) was found to be 1.6 fold. For the same compound, the “BRD4-BD1 vs. BRD4-BD2 fold” value on BRD4-BD1 [1] (BD1 selectivity, AlphaScreen IC50 ratio) is listed as 2,352 fold. On BRDT-BD1 [2], the “BRDT-BD1 vs. BRDT-BD2 fold” value is on record as 3,875 fold.
As to `CNC(=O)[C@@H](CC1CCN(C(=O)Cc2ccc3[nH]c(=O)cc(C)c3c2)CC1)NC(=O)c1ccc(-c2ccc(C)cc2C)cn1` [Compound 2, (R)-5-(2,4-dimethylphenyl)-N-(3-(1-(2-(4-methyl-2-oxo-1,2-dihydroquinolin-6-yl)acetyl)piperidin-4-yl)-1-(methylamino)-1-oxopropan-2-yl)picolinamide], the half-life at 2 μM in [3] is 33 min. For the same compound, the “inhibition of tracer binding, BD1 vs BD2 (in words)” value with NanoLuc-BET BD1 was “more potent and selective for NanoLuc-BET BD1”. In addition, in data set [4], the “effect on the cell cycle (in words)” value was “induced Gi arrest”. Moreover, the “MYC expression (in words)” value in [5] is “suppressed”. For the same compound, the “effects on GAPDH expression (in words)” value in data set [5] is given as “no/minimal effects”. Moreover, the IC50 was 0.13 nM on BRD3-BD1; 0.22 nM on BRDT-BD1 [6]; 0.29 nM at BRD4-BD1 [7]; 2.1 nM at BRDT-BD1 [2] (AlphaScreen); 0.26 nM at BRD2-BD1 (printed as BRD2-BDT1). Moreover, on BRD3-BD1 (BromoKdELECT), the “BRD3-BD1 selectivity over BRD3-BD2” value was found to be 5920 fold. Also, at NanoLuc-BRDT-BD2, the “effect against BRDT-BD2 in NanoBRET (in words)” value is on record as “no effect”. Further, at NanoLuc-BRD4-BD2, the “effect against BRD4-BD2 in NanoBRET (in words)” value was “no effect”. Moreover, the “apoptosis, Annexin V+ cells (in words)” value in data set [8] is “induced”. Further, in data set [9], the “metabolic stability in mouse liver microsomes (in words)” value is listed as “labile”. Also, the “fold more potent than (+)-JQ1 for BRDT-BD1” value at BRDT-BD1 [2] (AlphaScreen) is 22 fold. In addition, the “BRDT-BD1 vs. BRDT-BD2 fold” value on BRDT-BD1 [2] is approximately 5000 fold. On BRD2-BD1 (BromoKdELECT), the “BRD2-BD1 selectivity over BRD2-BD2” value was 420 fold.
